From patent publication US20100317730A1, “Treatment for menopausal and perimenopausal vasomotor symptons” (priority 2009, published 2010) come the findings set out here.

The test system of the series is perimenopausal and menopausal vasomotor symptoms, hot flashes and excessive sweating. Nature of the series: Clinical use of topiramate for menopausal and perimenopausal vasomotor symptoms. The format is in vivo, human. From the text: Based on data and observations made by the inventor, they have found topiramate to have the following, previously undiscovered, beneficial pharmacological effects for patients with excessive sweating and hot flashes. They are as follows: • 1. […] Helps to prevent patients from experiencing hot flashes, excessive sweating, and vasomotor symptoms associated with their perimenopause and menopause. • 3. Substantial improve or completely suppress nighttime vasomotor symptoms, excessive sweating, and hot flashes associated with perimenopause and menopause. • 4. Substantial improve or completely suppress daytime vasomotor symptoms, excessive sweating, and hot flashes associated with perimenopause and menopause. • 5. Effective in controlling these symptoms when taken only on an as needed basis. […] Optionally, the topiramate can be taken as a low dose on an as-needed basis. […] a person had been stable on their current treatment for Panic and Major Depressive Disorders with a satisfactory remission for several years and without any side effect complaints. However, now […], they started developing menopausal symptoms of hot flashes and excessive sweating. After counselling and informed consent about the off-label use, they took a trial of topiramate 25 mg by mouth twice daily. Upon follow up, they confirmed that the excessive sweating was improved with this low dose of topiramate and that they have found it to be effective when taken on an as needed basis, depending on their expectations of physical activity and weather/temperature conditions. […] Several other similar clinical examples were observed.

`CC1(C)O[C@@H]2[C@@H](CO[C@@]3(COS(N)(=O)=O)OC(C)(C)O[C@@H]23)O1` [topiramate]: the excessive sweating result (A person, menopausal hot flashes and excessive sweating, topiramate 25 mg by mouth twice daily, at follow up) is reported as “improved”. For the same compound, for the setting “A person, low dose topiramate taken as needed, depending on physical activity and weather/temperature”, the “effectiveness when taken on an as needed basis” value is “effective”. For the same compound, the adverse effects result (A person, topiramate 25 mg by mouth twice daily) is “no adverse effects”. Besides, the side effects entry (inventor's patients, small doses) is given as “minimal to no side effects”. In addition, the “vasomotor symptoms, excessive sweating and hot flashes” value (perimenopausal and menopausal patients, inventor's data and observations) is “Substantial improvement”. Further, the “treating hot flashes and hyperhidrosis” value (perimenopausal and menopausal women, doses as low as 12.5 mg per day) is on record as “highly effective”.
